The target of experiment [1] is LmexNT1. It counts as cell-based, Leishmania mexicana. On the procedure:
(§1) Using the standard uptake technique as described for T. brucei and Leishmania species ([Wallace et al., 2002], [Al-Salabi and De Koning, 2005], [Gudin et al., 2006]), the dose- or time-dependent uptake of radiolabeled permeants was investigated.
(§2) Briefly, cells in the mid-to-late logarithmic stage of growth were harvested by centrifugation for 10 min at 1500×g. The cells were washed twice with transport assay buffer (AB: 33 mM HEPES, 98 mM NaCl, 4.6 mM KCl, 0.55 mM CaCl2, 0.07 mM MgSO4, 5.8 mM NaH2PO4, 0.3 mM MgCl2, 23 mM NaHCO3, 14 mM glucose, pH 7.3), resuspended at a density of 10^8 cells ml^−1 in AB, and left for 20–30 min at room temperature to recover from centrifugation stress. One hundred microliters of cell suspension was incubated at ambient temperature for a predetermined time with 100 μl radiolabeled test compound, in the presence or absence of unlabeled substrate or other competitive inhibitors. The incubation was terminated by the addition of ice-cold stop solution (AB containing saturating levels, usually 10 mM, of unlabeled permeant) and centrifugation through oil for 1 min at 13,000 × g. […] Radioactivity was determined by liquid scintillation counting in a Beckman LS6000 TA scintillation counter. Saturation data, inhibition data, and time courses were plotted to equations for linear or non-linear regression (hyperbolic or sigmoid curves), as appropriate. All experiments were performed in triplicate and on at least three independent occasions.
L. donovani is known to express one pyrimidine nucleoside transporter, LdNT1, which also transports adenosine ([Vasudevan et al., 1998], [De Koning et al., 2005]). In order to investigate whether this model held true for L. mexicana, the uptake of [^3H]-thymidine was studied. […] Care was taken throughout this study that whenever inhibition constants (Ki) or Michaelis-Menten constants (Km) were determined the conditions used had been verified to be well within the linear range of uptake.

The next experiment has as its target LmexUU1. The experiment is classed as cell-based, Leishmania mexicana. As for the experimental part: as §1, §2
The target in experiment [2] is LmexNT1. It counts as cell-based, Leishmania mexicana. On the procedure:
as §1, §2
This is another data set of the same source.

A further experiment concerns Lmaj5F2′dURes. The experiment in a line: microbe, parasite or virus in culture. Conditions: for EC50: Leishmania major; for RF (Resistance Factor = IC50 (resistant clone)/IC50 (WT)): Lmaj5F2′dURes vs L. major WT. The experiment is classed as cell-based, Leishmania major. On the procedure: (§3) Sensitivity assays of Leishmania strains to various drugs using the viability dye resazurin (Alamar Blue) (Sigma-Aldrich) were performed using a protocol adapted from [Räz et al. (1997)], as described ([Al-Salabi et al., 2003], [Gould et al., 2008]). Pentamidine and diminazene were used as non-nucleoside controls and were obtained from Sigma-Aldrich, as were many purines, pyrimidines, and analogs, with the exceptions of 2-thiouridine and 4-thiouridine (TriLink BioTechnologies, San Diego, CA); 5′-deoxyuridine, and 2′-3′-dideoxyuridine (Carbosynth, Compton, UK); 5-fluoro-2′-deoxyuridine (Fluka); and 2-thiouracil (ICN Biomedicals, Cambridge, UK). A preliminary promastigote culture was diluted to a density of 2 × 10^6 cells/ml, of which 100 μl was added to wells of 96-well plates pre-loaded with 100 μl of doubling dilutions of test compounds, resulting in a final density of 1 × 10^6 cells/ml; the dilutions were over 2 rows of the plate (23 concentrations), with the last well containing only medium and serving as the no-drug control. The plates were incubated at 25 °C for 72 h before adding the Alamar Blue dye (20 μl of 12.5 mg resazurin sodium salt (Sigma) in 100 ml phosphate buffered saline (PBS; pH 7.4)). Since Leishmania parasites metabolize the Alamar Blue dye slower than trypanosomes ([Gould et al., 2008]), the cells were incubated with the dye for a further period of 48 h before measuring the fluorescence, using a FLUOstar Optima fluorimeter (BMG Labtech) at wavelengths of 544 nm for excitation and 620 nm for emission. […] Each experiment was performed independently at least 4 times; statistical significance was determined using Student's unpaired t-test.

The subject of a further experiment is Lmaj5FURes. The experiment in a line: microbe, parasite or virus in culture. The experiment is classed as cell-based, Leishmania major. The settings on record: for EC50: Leishmania major; for RF (Resistance Factor = IC50 (resistant clone)/IC50 (WT)): Lmaj5FURes vs L. major WT. On the procedure:
as §3

Experiment [3] has as its system L. major promastigotes WT. Nature of the experiment: Alamar blue drug sensitivity assay, L. major WT. The experiment is classed as cell-based, Leishmania major. Conditions: for EC50: Leishmania major, WT promastigotes, 72 h + 48 h with dye, n ≥ 4, read-out: EC50. On the procedure: as §3
A general note: The colour change of resazurin is a common sign of viable cells or microbes.

The subject of experiment [4] is L. mexicana promastigotes WT. The experiment in a line: Alamar blue drug sensitivity assay, L. mexicana WT. It counts as cell-based, Leishmania mexicana. Conditions: for EC50: Leishmania mexicana, 72 h, WT promastigotes, 72 h + 48 h with dye, n ≥ 4, read-out: EC50; for activity against L. mexicana promastigotes: at concentrations up to 5 mM. On the procedure:
as §3

In another experiment the test system is Lmex5F2′dURes. The experiment in a line: microbe, parasite or virus in culture. It counts as cell-based, Leishmania mexicana. The settings on record: for EC50: Leishmania mexicana; for RF (Resistance Factor = IC50 (resistant clone)/IC50 (WT)): Lmex5F2′dURes vs L. mexicana WT. On the procedure:
as §3

Another experiment deals with Lmex5FURes. The experiment in a line: microbe, parasite or virus in culture. It counts as cell-based, Leishmania mexicana. Conditions: for EC50: Leishmania mexicana; for RF (Resistance Factor = IC50 (resistant clone)/IC50 (WT)): Lmex5FURes vs L. mexicana WT. On the procedure:
as §3

For experiment [5], the system named is L. mexicana promastigotes. Nature of the experiment: metabolomic analysis of treated L. mexicana promastigotes. It counts as cell-based, Leishmania mexicana. The settings on record: 100 μM, 8 h. On the procedure: (§4) Metabolomics analysis of the Leishmania promastigotes was undertaken in triplicate, exactly as described ([Ali et al., 2013a]). Briefly, cells were grown to log phase stage, resuspended at 2 × 10^6 cells/ml in 50 ml HOMEM/FBS and incubated 8 h with 100 μM of test compound (standard conditions) before transfer to a 50-ml centrifuge tube for instantaneous cooling (dry ice/ethanol bath, 4 °C) and centrifugation (2500 rpm, 10 min, 4 °C). The pellet was lysed with 200 μl of chloroform/methanol/water (1:3:1 v/v/v) containing mass spectrometry standards, and vigorous mixing (1 h, 4 °C); cell debris was removed by centrifugation and the metabolite extracts were stored in HPLC vials at −80 °C. Control samples were prepared in parallel and included untreated cells, unused growth medium, test compound solution and extraction solvent blanks. The analysis used a hydrophilic interaction liquid chromatography (HILIC-LC) fitted with a zwitterionic ZIC-pHILIC column (Merck Sequant), coupled to high resolution mass spectrometry (MS) using a Thermo Q-Exactive, and metabolomic data outputs were analyzed using the IDEOM application (http://mzmatch.sourceforge.net/ideom.php) with default parameters ([Creek et al., 2012]) exactly as described ([Ali et al., 2013a]). The lower limit of detection was set to 500 intensity units for all reported metabolites, in order to prevent spurious identification of low level signals.
(§5) The mechanism of action of the fluorinated pyrimidines was investigated using a metabolomics approach, where promastigotes of L. mexicana and L. major were incubated for 8 h with 100 μM of either 5-FU, 5F-2′dUrd or 5F-Urd prior to metabolite extraction and mass spectrometric analysis as described ([Ali et al., 2013a], [Alkhaldi et al., 2015]). These conditions were chosen to allow for significant metabolite accumulation while not affecting cell viability or growth rate, which could broadly affect metabolite levels.

Another experiment relates to L. major promastigotes. Nature of the experiment: metabolomic analysis of treated L. major promastigotes. It counts as cell-based, Leishmania major. Conditions: 100 μM, 8 h. On the procedure:
as §4, §5

The target in a further experiment is LmajNT1. The experiment in a line: [3H]-thymidine uptake by L. major promastigotes. It counts as cell-based, Leishmania major. Conditions: inhibition of 0.25 μM [3H]-thymidine uptake (total LmajNT1.1 + LmajNT1.2), 5 min. As for the experimental part:
as §1, §2
Subsequent experiments were performed with a 5 min incubation time.

Experiment [6] has as its target LmexNT1. The experiment in a line: [3H]-adenosine uptake by L. mexicana promastigotes. The experiment is classed as cell-based, Leishmania mexicana. Conditions: inhibition of 0.05 μM [3H]-adenosine uptake; read-out: Ki.
Description: Using the standard uptake technique as described for T. brucei and Leishmania species ([Wallace et al., 2002], [Al-Salabi and De Koning, 2005], [Gudin et al., 2006]), the dose- or time-dependent uptake of radiolabeled permeants was investigated. The following radiolabels and specific activities were used: [^3H]-thymidine (Perkin Elmer; 56.6 Ci/mmol); [^3H]-adenosine (American Radiolabeled Chemicals UK; 40 Ci/mmol); [^3H]-uridine (American Radiolabeled Chemicals UK; 30 Ci/mmol); [^3H]-uracil (Perkin Elmer; 24.8 Ci/mmol); [^3H]-inosine (American Radiolabeled Chemicals UK; 20 Ci/mmol); [^3H]-5-fluorouracil (Moravek; 20 Ci/mmol).
as §2
We next investigated the transport of [^3H]-adenosine in L. mexicana promastigotes, which according to the efficient inhibition of [^3H]-thymidine by adenosine, should be taken up with high affinity.

Setting [7] is: n = 3, SEM, untreated: not detected (<500).

Where two headings read alike, the source gives them in different places.

In general, Ki refers to the dissociation constant of the complex between target and ligand, obtained from inhibition or displacement. Consider `O=c1[nH]cnc2nc[nH]c12` [hypoxanthine], for which the inhibition constant Ki at LmexNT1 [1] is more than 1000 µM; at LmexUU1 it was more than 500 µM; on LmexNT1 [2] it was more than 1000 µM.
What is called EC50 is the concentration at which the effect is half-maximal. With `N=C(N)c1ccc(/N=N/Nc2ccc(C(=N)N)cc2)cc1` [diminazene], the EC50 with Lmaj5F2′dURes was 24.6 ± 1.5 µM; in the experiment with Lmaj5FURes it was 10 ± 1.6 µM; in [3] it was 9.8 ± 0.3 µM; in experiment [4] it was 7.4 ± 0.3 µM; in the experiment on Lmex5F2′dURes, 13.9 ± 1.9 µM; with Lmex5FURes it was 7.2 ± 1.4 µM. Further, the “RF (Resistance Factor = IC50 (resistant clone)/IC50 (WT))” value (“RF” for short) with Lmaj5F2′dURes is recorded as 2.5; in the experiment on Lmaj5FURes it was 1.02; in the experiment on Lmex5F2′dURes, 1.8; in the experiment with Lmex5FURes, 0.97.
Turning to `O=c1[nH]c(=O)n([C@@H]2O[C@H](CO)[C@@H](O)[C@H]2O)cc1F` [5F-Urd, 5-Fluorouridine], the dCMP peak intensity in experiment [5] (setting [7]) is reported as 12757 ± 1038^∗∗ arbitrary units; in the experiment with L. major promastigotes (setting [7]), 6744 ± 3500 arbitrary units. Also, the dUrd peak intensity in experiment [5] (untreated: 304 ± 155) is listed as 6439 ± 456^∗ arbitrary units; in the experiment on L. major promastigotes (untreated: 712 ± 105), 8145 ± 1684^∗ arbitrary units. For the same compound, the dADP peak intensity in [5] (untreated: 1458) is 9404 ± 1389^∗ arbitrary units; in the experiment on L. major promastigotes (untreated: not detected) it was 6482 ± 3260 arbitrary units. Further, the dAdo peak intensity in experiment [5] (untreated: 2585 ± 811) is listed as 8045 ± 4537 arbitrary units; in the experiment on L. major promastigotes (untreated: 2992 ± 173) it was 11818 ± 839^∗∗ arbitrary units. For the same compound, the values for the dAMP peak intensity (in [5] (untreated: 10660 ± 2897); in the experiment with L. major promastigotes (untreated: 6192 ± 910)) were 21978 ± 1784^∗∗ arbitrary units and 18001 ± 2307^∗ arbitrary units, respectively. Besides, the dCDP peak intensity in [5] (untreated: not detected) is given as 10404 ± 1470^∗ arbitrary units; in the experiment with L. major promastigotes (untreated: not detected) it was 6904 ± 384^∗∗ arbitrary units. The dCTP peak intensity in [5] (untreated: not detected) is on record as 2338 ± 428^∗ arbitrary units; in the experiment on L. major promastigotes (untreated: 995 ± 109), 5477 ± 1350^∗ arbitrary units. Also, the EC50 is 1230 ± 340 µM with Lmaj5F2′dURes; 110 ± 17 µM in the experiment with Lmaj5FURes; 18 ± 1.6 µM in experiment [3]; more than 5000 µM in [4]; more than 5000 µM in the experiment on Lmex5F2′dURes; more than 5000 µM in the experiment with Lmex5FURes. In addition, the “RF” value came out at 68 in the experiment with Lmaj5F2′dURes, 6.1 in the experiment with Lmaj5FURes, 1 with Lmex5F2′dURes and 1 in the experiment on Lmex5FURes. The “concentrations that killed promastigotes” value in [3] was “below 20 μM”. In addition, on LmajNT1, the Ki turned out to be 23.4 ± 1.3 µM. The “activity against L. mexicana promastigotes” value is recorded as “insensitive” in [4] and “no activity” in [4] (listed as 5-fluorouridine).
Take `Nc1ccn([C@@H]2O[C@H](CO)[C@@H](O)[C@H]2O)c(=O)n1` [cytidine]: the Ki was 82 ± 5 µM on LmexNT1 [1] (inhibition of 1 μM [3H]-thymidine uptake, 20 s); 149 ± 18 µM on LmexNT1 [6]; 1150 ± 108 µM on LmajNT1; 78.6 ± 15.1 µM on LmexNT1 [2] (inhibition of 0.25 μM [3H]-uridine uptake in the presence of 1 mM uracil).
For the compound `Nc1nc(=O)n([C@H]2C[C@H](O)[C@@H](CO)O2)cc1F` [5F-2′dCtd, 5-Fluoro-2′-deoxycytidine], the EC50 in the experiment with Lmaj5F2′dURes is 3870 ± 621 µM; in the experiment with Lmaj5FURes it was 17 ± 1.8 µM; in experiment [3], 38 ± 1.7 µM; in [4], 17.3 ± 1.8 µM; with Lmex5F2′dURes it was more than 5000 µM; in the experiment on Lmex5FURes it was 24 ± 0.9 µM. Moreover, the “RF” value with Lmaj5F2′dURes is on record as 101; in the experiment on Lmaj5FURes it was 0.4; in the experiment with Lmex5F2′dURes, more than 290; with Lmex5FURes, 1.4.

These data come from article PMC5407577, “Functional and genetic evidence that nucleoside transport is highly conserved in Leishmania species: Implications for pyrimidine-based chemotherapy” (International Journal for Parasitology: Drugs and Drug …, 2017).
